Data: US20240116867A1, “ALKYL […] AMMONIUM T[…] THEIR […] USES” (CAAMTECH, INC., priority 2019, published 2024)
Where two headings read alike, the source gives them in different places.

Assays:
5-HT1A [1] = molecular target: T1, 5-HT1A (Homo sapiens, UniProt P08908); experiment: Radioligand binding, 5-HT1A ([3H] 8-OH-DPAT), membrane homogenates of HEK-293 cells; conditions: Table 5
T1 construct: host or cells: HEK-293
T1 sequence (P08908 1-422): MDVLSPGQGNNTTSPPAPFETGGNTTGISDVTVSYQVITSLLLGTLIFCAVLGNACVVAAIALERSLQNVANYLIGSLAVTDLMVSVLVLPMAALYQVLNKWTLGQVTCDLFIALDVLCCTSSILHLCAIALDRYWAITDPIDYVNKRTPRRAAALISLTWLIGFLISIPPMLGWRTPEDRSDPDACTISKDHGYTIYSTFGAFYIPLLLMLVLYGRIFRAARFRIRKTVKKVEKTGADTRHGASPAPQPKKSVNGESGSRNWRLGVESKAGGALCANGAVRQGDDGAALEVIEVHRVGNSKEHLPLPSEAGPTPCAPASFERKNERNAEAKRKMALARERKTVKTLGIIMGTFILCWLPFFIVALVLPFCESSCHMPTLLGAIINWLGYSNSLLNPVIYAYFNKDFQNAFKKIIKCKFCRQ
Method: (§1) Cellular assays were performed by Eurofins CEREP SA, Celle-Lévescault, France. All receptors were separately expressed in HEK-293 cells. Cell membrane homogenates (30 μg protein) are incubated for 60 min (5-HT1A, 5-HT2A, 5-HT2B) or 120 min (5-HT3) at 22° C. with radiolabeled ligand in the absence or presence of the test compound in a buffer containing 50 mM Tris-HCl (pH 7.4), 5 mM MgCl2, 10 μM pargyline and 0.1% ascorbic acid. For 5-HT3, the buffer contained 50 mM Tris-HCl (pH 7.4), 5 mM MgCl2, and 1 mM EDTA. Binding was reported as the Ki for the inhibition of binding of well-characterized orthosteric ligands. The ligands used for each receptor were: • 5-HT1A: [^3H] 8-OH-DPAT • 5-HT2A: [^125] […]
(§2) Nonspecific binding was determined in the presence of 1 μM unlabeled ligand listed above. […] The filters were dried then counted for radioactivity in a scintillation counter (Topcount, Packard) using a scintillation cocktail (Microscint 0, Packard). The results are expressed as a percent inhibition of the control radioligand specific binding.
(§3) The IC50 values and Hill coefficients (nH) were determined by non-linear regression analysis of the competition curves generated with mean replicate values using Hill equation curve fitting Y=D+[(A−D)/(1+(C/C50)^nH)] where Y=specific binding, A=left asymptote of the curve, D=right asymptote of the curve, C=compound concentration, C50=IC50, and nH=slope factor. […]

5-HT2A [2] = molecular target: T2, 5-HT2A (Homo sapiens, UniProt P28223); experiment: Radioligand binding, 5-HT2A ([125] (±)DOI), membrane homogenates of HEK-293 cells; conditions: Table 5
T2 construct: host or cells: HEK-293
Method: as §1, §2, §3

5-HT2B [3] = molecular target: T3, 5-HT2B (Homo sapiens, UniProt P41595); experiment: Radioligand binding, 5-HT2B ([125] (±)DOI), membrane homogenates of HEK-293 cells; parameters: host or cells: HEK-293; conditions: Table 5
Method: as §1, §2, §3

5-HT3 [4] = molecular target: T4, 5-HT3 (Homo sapiens, UniProt P46098); experiment: Radioligand binding, 5-HT3 ([3H] BRL 43694), membrane homogenates of HEK-293 cells; conditions: Table 5
T4 construct: host or cells: HEK-293
T4 sequence (P46098 24-478): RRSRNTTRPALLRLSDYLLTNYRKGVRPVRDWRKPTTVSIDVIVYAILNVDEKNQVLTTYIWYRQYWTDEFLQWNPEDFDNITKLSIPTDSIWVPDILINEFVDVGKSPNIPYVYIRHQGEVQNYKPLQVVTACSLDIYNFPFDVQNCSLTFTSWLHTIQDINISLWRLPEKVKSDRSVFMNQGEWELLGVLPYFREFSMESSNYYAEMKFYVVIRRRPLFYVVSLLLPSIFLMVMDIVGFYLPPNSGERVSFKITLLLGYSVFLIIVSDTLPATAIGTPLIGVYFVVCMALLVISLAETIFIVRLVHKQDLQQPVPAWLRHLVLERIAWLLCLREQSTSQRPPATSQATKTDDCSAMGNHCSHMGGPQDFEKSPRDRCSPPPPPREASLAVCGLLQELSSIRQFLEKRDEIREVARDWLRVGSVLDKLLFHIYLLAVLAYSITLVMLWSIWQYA
Method: as §1, §2, §3

5-HT2A [5] = molecular target: T2, 5-HT2A; conditions: cited from earlier work
5-HT3 [6] = molecular target: T4, 5-HT3; conditions: read-out: Inhibition constants (Ki) 5-HT3; comparison values marked ‡ (Roth et al.); cited from earlier work
5-HT1A [7] = molecular target: T1, 5-HT1A; conditions: cited from earlier work
5-HT2B [8] = molecular target: T3, 5-HT2B; conditions: comparison values (Roth et al.); cited from earlier work
[9] = comparison values (Roth et al.)

T3 sequence (P41595 whole entry): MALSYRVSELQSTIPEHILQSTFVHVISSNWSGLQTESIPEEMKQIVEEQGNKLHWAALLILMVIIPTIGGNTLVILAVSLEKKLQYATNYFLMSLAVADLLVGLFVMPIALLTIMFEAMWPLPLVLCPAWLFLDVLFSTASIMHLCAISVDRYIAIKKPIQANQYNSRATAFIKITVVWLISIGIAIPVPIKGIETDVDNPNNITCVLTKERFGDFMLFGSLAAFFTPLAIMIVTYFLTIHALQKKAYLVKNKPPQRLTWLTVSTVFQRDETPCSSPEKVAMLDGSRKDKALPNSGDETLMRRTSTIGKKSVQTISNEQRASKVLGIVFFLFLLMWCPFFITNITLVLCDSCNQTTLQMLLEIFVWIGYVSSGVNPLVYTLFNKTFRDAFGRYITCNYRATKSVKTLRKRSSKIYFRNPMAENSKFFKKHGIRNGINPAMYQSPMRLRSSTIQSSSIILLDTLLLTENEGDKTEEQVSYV
T2 sequence (P28223 whole entry): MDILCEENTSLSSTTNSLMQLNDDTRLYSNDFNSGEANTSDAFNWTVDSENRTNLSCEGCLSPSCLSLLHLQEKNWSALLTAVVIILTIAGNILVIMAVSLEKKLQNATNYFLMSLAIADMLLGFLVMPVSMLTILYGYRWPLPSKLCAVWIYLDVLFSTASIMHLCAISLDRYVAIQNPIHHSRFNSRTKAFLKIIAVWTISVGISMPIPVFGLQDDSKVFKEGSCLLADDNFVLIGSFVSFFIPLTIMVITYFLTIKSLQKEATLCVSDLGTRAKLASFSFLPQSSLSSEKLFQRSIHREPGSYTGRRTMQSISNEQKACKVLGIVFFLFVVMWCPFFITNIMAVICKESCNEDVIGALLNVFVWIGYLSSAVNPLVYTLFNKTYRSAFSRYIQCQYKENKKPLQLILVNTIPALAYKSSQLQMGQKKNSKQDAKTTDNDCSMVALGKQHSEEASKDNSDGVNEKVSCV

| Compound | activity at 5-HT1A (in words) (5-HT1A [1]) | activity at 5-HT2A (in words) (5-HT2A [2]) | activity at 5-HT2B (in words) (5-HT2B [3]) | activity at 5-HT3 (in words) (5-HT3 [4]) | Ki (5-HT2A [5]; read-out: Inhibition constants (Ki) 5-HT2A, comparison values marked ‡ (Roth et al.)) [µM] | Ki (5-HT3 [6]) [µM] | Ki (5-HT1A [7]; read-out: Inhibition constants (Ki) 5-HT1A, comparison values marked ‡ (Roth et al.)) [µM] | activity at 5-HT2A (in words) (5-HT2A [5]; [9]) | activity at 5-HT2B (in words) (5-HT2B [8]) | activity at 5-HT1A (in words) (5-HT1A [7]; [9]) |
| --- | --- | --- | --- | --- | --- | --- | --- | --- | --- | --- |
| C[N+](C)(C)CCc1c[nH]c2cccc(O)c12 [Example 4-HO-TMTI, 4-Hydroxy-N,N,N-trimethyltryptammonium Iodide] | shows activity | shows activity | shows activity | no activity observed |  |  |  |  |  |  |
| CN(C)CCc1c[nH]c2cccc(OP(=O)(O)O)c12 [Psilocybin] |  |  |  |  | > 10 | > 10 | > 10 |  |  |  |
| CC(=O)Oc1cccc2[nH]cc(CC[N+](C)(C)C)c12 [Example 4-AcO-TMTI, 4-Acetoxy-N,N,N-trimethyltryptammonium Iodide] | shows no activity | shows no activity | shows no activity | shows no activity |  |  |  |  |  |  |
| CN(C)CCc1c[nH]c2cccc(O)c12 [Psilocin] |  |  |  |  |  | > 10 |  | shows activity | significantly more potent than 4-HO-TMTI | shows activity |
